Test results taken from US20130109698A1, “Small Molecule Inhibitors of Functions of the HIV-1 Matrix Protein” (priority 2010, published 2013).
pIC50: −log10 of the molar value. Where two headings read alike, the source gives them in different places.

Key:
HIV-1 Ba-L = assay: Antiviral activity of additional compounds (Tables 6 and 7); format: cell-based; conditions: for pIC50 / IC90: Human immunodeficiency virus 1, BAL
Description: (§1) HIV human peripheral blood mononuclear cell (PBMC) assays were performed as described previously (Lanier et al., 2010, Antimicrob Agents Chemother 54:2901-2909 and Ptak et al., 2008, Antimicrob Agents Chemother 52:1302-1317). Briefly, fresh PBMCs, seronegative for HIV and hepatitis B virus (HBV), were isolated from blood samples of the screened donors (Biological Specialty Corporation, Colmar, Pa.) by using lymphocyte separation medium (LSM; density, 1.078±0.002 g/ml; Cellgro; Mediatech, Inc.) by following the manufacturer's instructions. Cells were stimulated by incubation in 4 μg/mL phytohemagglutinin (PHA; Sigma) for 48 to 72 h. Mitogenic stimulation was maintained by the addition of 20 U/mL recombinant human interleukin-2 (rhIL-2; R&D Systems, Inc.) to the culture medium. PHA-stimulated PBMCs from at least two donors were pooled, diluted in fresh medium, and added to 96-well plates at 5×10^4 cells/well. Cells were infected (final multiplicity of infection [MOI] of ≅0.1) in the presence of nine different concentrations of test compounds (triplicate wells/concentration) and incubated for 7 days. To determine the level of virus inhibition, cell-free supernatant samples were collected for analysis of reverse transcriptase activity (Buckheit et al., 1991, AIDS Res Hum Retroviruses 7:295-302). Following removal of supernatant samples, compound cytotoxicity was measured by the addition of 3-(4,5-dimethylthiazol-2-yl)-5-(3-carboxymethoxy-phenyl)-2-(4-sulfophenyl)-2H-tetrazolium (MTS; CellTiter 96 reagent; Promega) by following the manufacturer's instructions.

HIV-1 NL4-3 = assay: as above; format: cell-based; conditions: for pIC50 / IC90: Human immunodeficiency virus 1, NL43
Description: as §1

[1] = Compound cytotoxicity in PBMCs (MTS); format: cell-based, human; conditions: human, read-out: TC50
Description: as §1

[2] = system: luciferase-reporter HIV-1 NL4-3 pseudotyped with HxBc2 envelope produced in 293T cells; assay: microbe, parasite or virus in culture
HIV-1 92BR030 = assay: Anti-HIV efficacy in human PBMCs, reverse transcriptase activity; format: cell-based; conditions: HIV-1 92BR030, PBMCs
Description: as §1

HIV-1 93IN101 = assay: as above; format: cell-based; conditions: HIV-1 93IN101, PBMCs
Description: as §1

SIV MAC251 = assay: Antiviral efficacy in PBMCs, reverse transcriptase activity; format: cell-based
HIV-1 MA = target: T1, HIV-1 MA (Human immunodeficiency virus type 1 group M subtype B, UniProt P03348); assay: Surface plasmon resonance direct binding to immobilized HIV-1 MA; conditions: CM7 sensor chip, 10 μM (FIG. 14)
T1 construct: His6 (N, cleaved yes); SUMO (N, cleaved yes); made in house; host or cells: Escherichia coli BL21 (DE3) Codon+-RIL
Description: An assay was devised to monitor the interactions of small-molecule compounds to HIV-1 MA using SPR. In this assay, HIV-1LA1 MA was immobilized to the flow cells of a CM5 sensor chip to high density (˜1.3 kRU) or a CM7 sensor chip to high density (19 kRU) using standard amine coupling. A reference surface was similarly created by immobilizing the SUMO protein or a nonspecific antibody ARC4033 (antimouse/rat interferon-γ: BioSource). In small-molecule assays, the buffering system used is important due to the low responses obtained in binding assays. […] A stock solution of the MTI compounds was prepared by dissolving in 100% dimethyl sulfoxide (DMSO) to a final concentration of 10 mM.
To prepare the sample for analysis, 30 μL of the stock solution of the compound of the invention was added to sample preparation buffer (PBS, pH 7.2) to a final volume of 1 mL and mixed thoroughly. Preparation of analyte in this manner ensured that the concentration of DMSO was matched with that of running buffer with 3% DMSO. Lower concentrations of each compound were then prepared by two-fold serial dilutions into running buffer (PBS, 3% DMSO, pH 7.2). These compound dilutions were then injected over the control and MA surfaces at a flow rate of 30 μL min^−, for a 4-min association phase, followed by a 5-min dissociation phase.
In one aspect, owing to the relatively fast dissociation rates of these compounds, regeneration of these surfaces was accomplished by extensive washing of the system followed by a 5 min wait phase, a second wash, and a final 15 min wait phase. To secure complete regeneration, a buffer injection (5 min^on/5 min^off) was performed before each subsequent injection of compound.
Response to a small-molecule compound (NBD-556) specific for HIV-1 gp120 was also monitored to ensure specificity.
Data analysis was performed using BIAEvaluation 4.0 software (GE Healthcare). The responses of a buffer injection and responses from the ARC4033-immobilized reference cell were subtracted to account for nonspecific binding. The average maximum response was generated from a minimum of 3 data sets and was used to define the standard deviation for each compound binding to the HIV-1 MA protein.
The MTI compounds are predicted to interact with HIV-1 MA and thereby disrupt its functioning during the HIV-1 replication cycle. However, it is possible that a compound might exert its action via another mechanism not involving MA. Therefore, studies were performed to determine that the MTI compounds are directed against HIV-1 MA. The direct interaction of compounds CMPD-18, CMPD-17, CMPD-7, and CMPD-14 with HIV-1 MA was assayed using surface plasmon resonance interaction analyses. Wild-type HIV-1 MA protein was overproduced in E. coli using the pETHSUL expression system and purified using successive IMAC strategies, followed by an ion exchange chromatographic step as outlined in Materials and Methods. FIG. 6 illustrates the purification profile of HIV-1 MA. The purified MA was then immobilized onto the surface of a high-capacity CM7 sensor chip. Similarly, the monoclonal antibody ARC4033 (antimouse/rat interferon-γ; BioSource, Invitrogen, Carlsbad, Calif.) was immobilized on a CM7 sensor chip and was used to correct for background binding and instrument and buffer artifacts.

[3] = Human immunodeficiency virus 1, PBMC
[4] = Simian immunodeficiency virus, PBMC

Structure (SMILES) | pIC50 (HIV-1 Ba-L) | IC90 (HIV-1 Ba-L) | pIC50 (HIV-1 NL4-3) | IC90 (HIV-1 NL4-3) | CC50 at 7 days ([1]; Tables 6 and 7 study) | also measured
COc1ccc(OCC(=O)NCC(=O)NCc2ccc(C(=O)N3CCCCC3)cc2)cc1 [CMPD-47, 2-(4-methoxyphenoxy)-N-(2-oxo-2-((4-(piperidine-1-carbonyl)benzyl)amino)ethyl)acetamide] | 4.29 | 96.1 µM | 4.28 | 92.7 µM | 73.1 µM | Antiviral index (TC50/IC50) (HIV-1 Ba-L): 1.44; Antiviral index (TC50/IC50) (HIV-1 NL4-3): 1.39
CN1CCN(C(=O)c2ccc(CNC(=O)CNC(=O)COc3ccc(C(F)(F)F)cc3)cc2)CC1 [CMPD-44, N-(4-(4-methylpiperazine-1-carbonyl)benzyl)-2-(2-(4-(trifluoromethyl)phenoxy)acetamido)acetamide] | < 4.00 | > 100 µM | < 4.00 | > 100 µM | > 100 µM | –
CC(=O)NCC(=O)NCc1ccc(C(=O)N2CCCCC2)cc1 [CMPD-45, 2-acetamido-N-(4-(piperidine-1-carbonyl)benzyl)acetamide] | < 4.00 | > 100 µM | < 4.00 | > 100 µM | > 100 µM | –
COc1ccc(CNC(=O)CNC(=O)COc2ccccc2)cc1 [CMPD-36, N-(4-methoxybenzyl)-2-(2-phenoxyacetamido)acetamide] | < 4.00 | > 100 µM | < 4.00 | > 100 µM | > 100 µM | –
O=C(CNC(=O)COc1ccccc1)NCc1ccc(C(F)(F)F)cc1 [CMPD-37, N-(2-oxo-2-((4-(trifluoromethyl)benzyl)amino)ethyl)-2-phenoxyacetamide] | < 4.00 | > 100 µM | < 4.00 | > 100 µM | > 100 µM | –
COc1c(Cl)cc(C(=O)N2CCN(Cc3nc(-c4ccc(C)cc4)no3)CC2)cc1Cl [CMPD-3, (3,5-dichloro-4-methoxyphenyl)(4-((3-(p-tolyl)-1,2,4-oxadiazol-5-yl)methyl)piperazin-1-yl)methanone] | – | – | – | – | – | pIC50 [2]: < 4.00
COc1ccccc1-c1noc(=O)n1-c1cccc(C(F)(F)F)c1 [ITI-367, 3-(2-methoxyphenyl)-4-[3-trifluoromethyl-phenyl]-1,2,4-oxadiazol-5-one, reference compound] | – | – | – | – | – | CC50 at 7 days ([1]; Table 4 study, PBMCs): > 100 µM; Antiviral index (TC50/IC50) (HIV-1 92BR030): >2.13; pIC50 (HIV-1 92BR030; [3]): 4.33; IC90 (HIV-1 92BR030; [3]): > 100 µM; Antiviral index (TC50/IC50) (HIV-1 93IN101): >2.39; pIC50 (HIV-1 93IN101; [3]): 4.38; IC90 (HIV-1 93IN101; [3]): 96 µM; Antiviral index (TC50/IC50) (SIV MAC251): >1.33; pIC50 (SIV MAC251; [4]): 4.13; IC90 (SIV MAC251; [4]): > 100 µM
O=C(CNC(=O)COc1ccccc1)NCc1ccc(Cl)cc1 [CMPD-35, N-(4-chlorobenzyl)-2-(2-phenoxyacetamido)acetamide] | < 4.00 | > 100 µM | < 4.00 | > 100 µM | > 100 µM | –
CC1(C)CC(NC(=O)C(=O)Nc2ccc(Cl)cc2)CC(C)(C)N1 [NBD-556, N-(4-chlorophenyl), —N′-(2,2,6,6-tetramethylpiperidin-4-yl)-oxalamide, reference compound] | – | – | – | – | – | direct interaction with sensor chip-immobilized HIV-1 MA (HIV-1 MA): no such interaction
O=C(CNC(=O)COc1ccc(Cl)cc1)NCc1ccc(C(=O)N2CCCCC2)cc1 [CMPD-46, 2-(4-chlorophenoxy)-N-(2-oxo-2-((4-(piperidine-1-carbonyl)benzyl)amino)ethyl)acetamide] | 4.14 | > 100 µM | 4.11 | > 100 µM | > 100 µM | Antiviral index (TC50/IC50) (HIV-1 Ba-L): > 1.38; Antiviral index (TC50/IC50) (HIV-1 NL4-3): > 1.28
CN1CCN(C(=O)c2ccc(CNC(=O)CNC(=O)COc3ccccc3)cc2)CC1 [CMPD-40, N-(4-(4-methylpiperazine-1-carbonyl)benzyl)-2-(2-phenoxyacetamido)acetamide] | < 4.00 | > 100 µM | < 4.00 | > 100 µM | > 100 µM | –
CC(=O)NCC(=O)NCc1ccc(C(=O)N2CCN(C)CC2)cc1 [CMPD-41, 2-acetamido-N-(4-(4-methylpiperazine-1-carbonyl)benzyl)acetamide] | < 4.00 | > 100 µM | < 4.00 | > 100 µM | > 100 µM | –
O=C(CNC(=O)COc1ccccc1)NCc1ccccc1 [CMPD-38, N-benzyl-2-(2-phenoxyacetamido)acetamide] | < 4.00 | > 100 µM | < 4.00 | > 100 µM | > 100 µM | –
O=C(CNC(=O)COc1ccccc1)NCc1cccc(Cl)c1 [CMPD-39, N-(3-chlorobenzyl)-2-(2-phenoxyacetamido)acetamide] | < 4.00 | > 100 µM | < 4.00 | > 100 µM | > 100 µM | –
CN1CCN(C(=O)c2ccc(CNC(=O)CNC(=O)COc3ccc(Cl)cc3)cc2)CC1 [CMPD-42, 2-(4-chlorophenoxy)-N-(2-((4-(4-methylpiperazine-1-carbonyl)benzyl)amino)-2-oxoethyl)acetamide] | < 4.00 | > 100 µM | < 4.00 | > 100 µM | > 100 µM | –
COc1ccc(OCC(=O)NCC(=O)NCc2ccc(C(=O)N3CCN(C)CC3)cc2)cc1 [CMPD-43, 2-(4-methoxyphenoxy)-N-(2-((4-(4-methylpiperazine-1-carbonyl)benzyl)amino)-2-oxoethyl)acetamide] | < 4.00 | > 100 µM | < 4.00 | > 100 µM | > 100 µM | –
O=C(CNC(=O)COc1ccc(C(F)(F)F)cc1)NCc1ccc(C(=O)N2CCCCC2)cc1 [CMPD-48, N-(2-oxo-2-((4-(piperidine-1-carbonyl)benzyl)amino)ethyl)-2-(4-(trifluoromethyl)phenoxy)acetamide] | 4.69 | > 100 µM | 4.65 | > 100 µM | > 100 µM | Antiviral index (TC50/IC50) (HIV-1 Ba-L): > 4.86; Antiviral index (TC50/IC50) (HIV-1 NL4-3): > 4.45
